Measurements published in patent US8921417B2, “Method of treating dyslipidemia using naturally occurring diterpene” (Council of Scientific & Industrial Research, priority 2008, dated 2014).
Marks after values point to notes of the source that are not given here.

Test system: high fat diet (HFD)-fed dyslipidemic hamsters
Assay: Antidyslipidemic activity in high fat diet (HFD)-fed dyslipidemic hamster model
Assay type: in vivo, golden Syrian hamsters
Conditions: for GLY, percent change with respect to HFD-fed hamster group / HDL/TC, percent change with respect to HFD-fed hamster group / TC, percent change with respect to HFD-fed hamster group / TG, percent change with respect to HFD-fed hamster group / LDL, percent change with respect to HFD-fed hamster group: plasma; for antidyslipidemic activity (in words): different doses (5, 10, 25, 50, 100 mg/kg) of body weight
Source text: Male golden Syrian hamsters weighing 110-120 g were divided into hyperlipidemic and hyperlipidemic plus drug-treated groups. Each group consisted of eight animals. Hyperlipidemia was produced by feeding with a high fat diet (HFD). Hyperlipidemic hamsters had free access to the HFD and water ad lib during the entire period of the experiment. The test samples were given orally at the dose mentioned using water as a drug vehicle from day 4 to day 10 (7 days) in the HFD fed hamsters.
Normal hamsters fed with the HFD and given the drug vehicle (water) only served as control animals. Body weight and diet intake of each animal group was recorded daily to check the effect of the drug on food intake and body weight of the animals. At the end of the experiment, i.e., on the 10th day, the blood of the non-fasted animals was withdrawn in EDTA coated tubes and the tubes were cooled to 4° C. for 15 min. The cold plasma was separated and biological analysis of the plasma was performed on the same day using commercially available enzymatic diagnostic kits for triglycerides (TG), total cholesterol (TC), high density lipoprotein (HDL), glycerol (GLY) and low density lipoprotein (LDL) using a Synchron CX-5 Clinical System, Beckmann Coulter Instrument. The data was analyzed for its significance on Prism Software.

[1] = dose 25 mg/kg body weight, oral, 7 days
[2] = dose 50 mg/kg body weight, oral, 7 days
[3] = dose 100 mg/kg body weight, oral, 7 days

With `CC(C)c1c(C(=O)Nc2ccccc2)c(-c2ccccc2)c(-c2ccc(F)cc2)n1CC[C@@H](O)C[C@@H](O)CC(=O)O` [Atorvastatin, reference compound] the “increase of HDL/TC” value (dose 10 mg/kg) was 35%, the “lowering of Gly” value (dose 10 mg/kg) was 52% and the “lowering of TC” value (dose 10 mg/kg) was 14%. The “lowering of TG” value (dose 10 mg/kg) was 63%, the “GLY, percent change with respect to HFD-fed hamster group” value (“GLY, percent change” for short) (dose 10 mg/kg p.o., 7 days) was −52* % and the “HDL/TC, percent change with respect to HFD-fed hamster group” value (“HDL/TC, percent change” below) (dose 10 mg/kg p.o., 7 days) was “+35%”. The “TC, percent change with respect to HFD-fed hamster group” value (dose 10 mg/kg p.o., 7 days) was −14% and the “TG, percent change with respect to HFD-fed hamster group” value (from here on “TG, percent change”) (dose 10 mg/kg p.o., 7 days) was −63*** %.

`CC1=CCC[C@@H]2[C@@](C)(CCC3=CC(=O)O[C@@H]3O)[C@H](C)CC[C@@]12C` [Compound 1, 16α-hydroxycleroda-3,13(14)Z-dien-15,16-olide] was tested, and the “antidyslipidemic activity (in words)” value (listed as compound having formula (1)) was “significant antidyslipidemic activity”, the “antidyslipidemic activity (in words)” value (listed as pure isolated compound from the hexane extract) was “significantly decreased serum TG, total cholesterol (TC), and glycerol (Gly), accompanied by increase in HDL-C/TC ratio” and the “GLY, percent change” value (dose 5 mg/kg p.o., 7 days) was −10%. The “HDL/TC, percent change” value (dose 5 mg/kg p.o., 7 days) was “+12%”, the “TC, percent change with respect to HFD-fed hamster group” value (dose 5 mg/kg p.o., 7 days) was −27* % and the “TG, percent change” value (dose 5 mg/kg p.o., 7 days) was −19%. For the same molecule, the “GLY, percent change” value (dose 10 mg/kg p.o., 7 days) was −5%, the “HDL/TC, percent change” value (dose 10 mg/kg p.o., 7 days) was “+12%” and the “TC, percent change with respect to HFD-fed hamster group” value (dose 10 mg/kg p.o., 7 days) was −23* %. The “TG, percent change” value (dose 10 mg/kg p.o., 7 days) was −26*** %, the “increase of HDL/TC” value [1] was 36% and the “lowering of Low density lipoproteins (LDL)” value (shortened to “lowering … (LDL)”) [1] was 49%. The “lowering of glycerol (Gly)” value [1] was 51%, the “lowering of total cholesterol (TC)” value [1] was 46% and the “lowering of serum TG” value (dose 25 mg/kg body weight, oral, 7 days, listed as compound of formula (1), 25 mg/kg) was 51%. For the same molecule, the “lowering of serum TG” value (dose 25 mg/kg body weight, oral, 7 days, listed as the compound, 25 mg/kg) was “up to 51%”, the “GLY, percent change” value (dose 25 mg/kg p.o., 7 days) was −51*** % and the “HDL/TC, percent change” value (dose 25 mg/kg p.o., 7 days) was “+36%”. For the same molecule, the “LDL, percent change with respect to HFD-fed hamster group” value (from here on “LDL, percent change”) (dose 25 mg/kg p.o., 7 days) was −49* %, the “TC, percent change with respect to HFD-fed hamster group” value (dose 25 mg/kg p.o., 7 days) was −46** % and the “TG, percent change” value (dose 25 mg/kg p.o., 7 days) was −51*** %. The “increase of HDL/TC” value [2] was 54%, the “lowering … (LDL)” value [2] was 41% and the “lowering of glycerol (Gly)” value [2] was 48%. For the same molecule, the “lowering of serum TG” value [2] was 46%, the “lowering of total cholesterol (TC)” value [2] was 55% and the “GLY, percent change” value (dose 50 mg/kg p.o., 7 days) was −48** %. The “HDL/TC, percent change” value (dose 50 mg/kg p.o., 7 days) was “+54%”, the “LDL, percent change” value (dose 50 mg/kg p.o., 7 days) was −41* % and the “TC, percent change with respect to HFD-fed hamster group” value (dose 50 mg/kg p.o., 7 days) was −55*** %. For the same molecule, the “TG, percent change” value (dose 50 mg/kg p.o., 7 days) was −46** %, the “increase of HDL/TC” value [3] was 46% and the “lowering … (LDL)” value [3] was 65%. The “lowering of glycerol (Gly)” value [3] was 43%, the “lowering of serum TG” value [3] was 43% and the “lowering of total cholesterol (TC)” value [3] was 54%. The “GLY, percent change” value (dose 100 mg/kg p.o., 7 days) was −43*** %, the “HDL/TC, percent change” value (dose 100 mg/kg p.o., 7 days) was “+46%” and the “LDL, percent change” value (dose 100 mg/kg p.o., 7 days) was −65*** %. The “TC, percent change with respect to HFD-fed hamster group” value (dose 100 mg/kg p.o., 7 days) was −54*** %, the “TG, percent change” value (dose 100 mg/kg p.o., 7 days) was −43** % and the “increase of HDL/TC ratio” value (over the dose range 5 to 100 mg/kg body weight) was “up to 54%”. The “reduction of total cholesterol (TC)” value (over the dose range 5 to 100 mg/kg, listed as compound of formula (1)) was “up to 55%”.

In the case of `CC[C@H](C)C(=O)O[C@H]1C[C@@H](C)C=C2C=C[C@H](C)[C@H](CC[C@@H]3C[C@@H](O)CC(=O)O3)[C@H]21` [Lovastatin, reference compound], the “increase of HDL/TC” value [1] is reported as 12%, the “lowering of glycerol (Gly)” value [1] is reported as 35% and the “lowering of serum TG” value [1] is reported as 29%. For the same molecule, the “lowering of total cholesterol (TC)” value [1] was 9%, the “GLY, percent change” value (dose 25 mg/kg p.o., 7 days) was −35% and the “HDL/TC, percent change” value (dose 25 mg/kg p.o., 7 days) was “+12%”. The “TC, percent change with respect to HFD-fed hamster group” value (dose 25 mg/kg p.o., 7 days) was −9% and the “TG, percent change” value (dose 25 mg/kg p.o., 7 days) was −29%.

With `CC(C)OC(=O)C(C)(C)Oc1ccc(C(=O)c2ccc(Cl)cc2)cc1` [fenofibrate, reference compound] the “increase of HDL-C/TC” value (dose 108 mg/kg body weight) was 10%, the “lowering of Gly” value (dose 108 mg/kg body weight) was 36% and the “lowering of TC” value (dose 108 mg/kg body weight) was 18%. The “lowering of TG” value (dose 108 mg/kg body weight) was 42%.
